Read-outs that look alike come from different tables or passages of the source. Square brackets hold non-standard residues; d marks the D form. Primed or numbered codes have the meaning given here. Ends that are not written are not given here. 40K‑TE PEG(4) = 40 kDa PEG bound to Cys thiol via thioether (from iodoacetyl-PEG); Aib = CC(C)(N)C(=O)O
Key:
Type in all cases: cell-based
GLP-1 receptor = molecular target: T1, GLP-1 receptor (Homo sapiens, UniProt P43220); experiment: cAMP induction, firefly luciferase reporter assay in HEK293 cells co-transfected with GLP-1 receptor
T1 construct: expressed in transfected cells; host or cells: HEK293
Method: (§1) The ability of each peptide to induce cAMP was measured in a firefly luciferase-based reporter assay. […] At the end of the incubation, 100 μL of LucLite luminescence substrate reagent (Perkin Elmer, Wellesley, Mass.) were added to each well. […] In some instances, the in vitro agonist activity at the GIP receptor was also tested.

glucagon receptor = molecular target: T2, glucagon receptor (Homo sapiens, UniProt P47871); experiment: cAMP induction, firefly luciferase reporter assay in HEK293 cells co-transfected with glucagon receptor
T2 construct: expressed in transfected cells; host or cells: HEK293
Method: as §1

GIP receptor = molecular target: T3, GIP receptor (Homo sapiens, UniProt P48546); experiment: in vitro agonist activity at the GIP receptor (cAMP induction, luciferase reporter, HEK293 cells); conditions: CRE-luciferase reporter
T3 construct: expressed in transfected cells; host or cells: HEK293
T3 sequence (P48546 22-466): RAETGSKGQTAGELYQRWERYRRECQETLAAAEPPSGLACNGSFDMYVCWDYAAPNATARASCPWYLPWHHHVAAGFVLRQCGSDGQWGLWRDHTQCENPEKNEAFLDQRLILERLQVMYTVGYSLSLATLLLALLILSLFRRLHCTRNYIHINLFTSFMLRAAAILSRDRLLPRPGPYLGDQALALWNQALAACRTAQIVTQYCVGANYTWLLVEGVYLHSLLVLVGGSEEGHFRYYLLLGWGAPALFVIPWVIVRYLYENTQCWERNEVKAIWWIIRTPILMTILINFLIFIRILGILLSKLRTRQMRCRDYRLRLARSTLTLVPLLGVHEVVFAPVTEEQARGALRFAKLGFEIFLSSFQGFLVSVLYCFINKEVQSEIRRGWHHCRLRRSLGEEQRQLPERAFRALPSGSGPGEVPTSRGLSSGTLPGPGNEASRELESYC
Method: as §1, with “It is understood that a lower EC50 indicates higher activity or potency at the receptor. […] The” for “The”

[1] = read-out: EC50 (nM) at GLP-1 receptor, CRE-luciferase reporter, 5 hours incubation
[2] = read-out: EC50 (nM) at glucagon receptor, CRE-luciferase reporter, 5 hours incubation
[3] = CRE-luciferase reporter, 5 hours incubation

T1 sequence (P43220 24-463): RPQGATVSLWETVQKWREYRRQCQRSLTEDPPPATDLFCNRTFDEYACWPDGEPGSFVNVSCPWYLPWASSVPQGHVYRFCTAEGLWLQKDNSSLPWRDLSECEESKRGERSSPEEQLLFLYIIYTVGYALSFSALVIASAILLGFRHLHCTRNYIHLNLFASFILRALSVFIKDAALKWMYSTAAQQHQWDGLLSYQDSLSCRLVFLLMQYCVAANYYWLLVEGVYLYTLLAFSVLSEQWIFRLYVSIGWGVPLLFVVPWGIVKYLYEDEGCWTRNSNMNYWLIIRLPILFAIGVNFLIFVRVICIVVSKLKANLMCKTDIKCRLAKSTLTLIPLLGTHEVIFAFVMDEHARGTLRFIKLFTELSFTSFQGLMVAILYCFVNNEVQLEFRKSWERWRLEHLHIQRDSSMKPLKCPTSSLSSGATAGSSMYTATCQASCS
T2 sequence (P47871 26-477, species assumed): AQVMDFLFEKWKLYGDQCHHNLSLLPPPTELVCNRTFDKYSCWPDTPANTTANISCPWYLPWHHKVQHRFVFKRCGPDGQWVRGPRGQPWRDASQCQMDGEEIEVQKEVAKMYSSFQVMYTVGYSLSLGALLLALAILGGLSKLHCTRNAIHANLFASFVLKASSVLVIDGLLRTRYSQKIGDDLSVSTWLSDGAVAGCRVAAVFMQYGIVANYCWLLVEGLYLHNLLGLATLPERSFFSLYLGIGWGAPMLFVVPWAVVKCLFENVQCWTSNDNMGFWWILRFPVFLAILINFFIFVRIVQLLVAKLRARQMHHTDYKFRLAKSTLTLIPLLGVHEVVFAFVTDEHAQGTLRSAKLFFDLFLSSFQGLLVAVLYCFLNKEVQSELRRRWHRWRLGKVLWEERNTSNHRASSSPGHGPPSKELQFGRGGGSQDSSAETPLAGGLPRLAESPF

## CCCCCCCCCCCCCCCC(=O)N[C@@H](CCC(=O)NCCCC[C@H](NC(=O)[C@H](CC(=O)O)NC(=O)[C@H](CO)NC(=O)[C@@H](NC(=O)[C@H](Cc1ccccc1)NC(=O)[C@@H](NC(=O)CNC(=O)[C@H](CCC(N)=O)NC(=O)[C@@H](CO)NC(=O)[C@@H](N)Cc1c[nH]cn1)[C@@H](C)O)[C@@H](C)O)C(=O)N[C@@H](CO)C(=O)N[C@@H](CCCCN)C(=O)N[C@@H](Cc1ccc(O)cc1)C(=O)N[C@@H](CC(C)C)C(=O)N[C@@H](CC(=O)O)C(=O)N[C@@H](CCC(=O)O)C(=O)N[C@@H](CCCNC(=N)N)C(=O)N[C@@H](C)C(=O)N[C@@H](C)C(=O)N[C@@H](CCC(N)=O)C(=O)N[C@@H](CC(=O)O)C(=O)N[C@@H](Cc1ccccc1)C(=O)N[C@H](C(=O)N[C@@H](CCC(N)=O)C(=O)N[C@@H](Cc1c[nH]c2ccccc12)C(=O)N[C@@H](CC(C)C)C(=O)N[C@@H](CC(C)C)C(=O)N[C@@H](CC(=O)O)C(=O)NCC(=O)N[C@@H](CCCNC(=N)N)C(=O)NCC(N)=O)C(C)C)C(=O)O [compound 19]
GLP-1 receptor; [1]
  EC50: 0.002 nM
Glucagon receptor; [2]
  EC50: 0.004 nM
GIP receptor
  EC50: 0.812 nM

## CC(C)C[C@H](NC(=O)[C@H](Cc1ccc(O)cc1)NC(=O)[C@H](CCCCN)NC(=O)[C@H](CO)NC(=O)[C@H](CCCCNC(=O)CC[C@H](NC(=O)CC12CC3CC(CC(C3)C1)C2)C(=O)O)NC(=O)[C@H](CC(=O)O)NC(=O)[C@H](CO)NC(=O)[C@@H](NC(=O)[C@H](Cc1ccccc1)NC(=O)[C@@H](NC(=O)CNC(=O)[C@H](CCC(N)=O)NC(=O)[C@@H](CO)NC(=O)[C@@H](N)Cc1c[nH]cn1)[C@@H](C)O)[C@@H](C)O)C(=O)N[C@@H](CC(=O)O)C(=O)N[C@@H](CCC(=O)O)C(=O)N[C@@H](CCCNC(=N)N)C(=O)N[C@@H](C)C(=O)N[C@@H](C)C(=O)N[C@@H](CCC(N)=O)C(=O)N[C@@H](CC(=O)O)C(=O)N[C@@H](Cc1ccccc1)C(=O)N[C@H](C(=O)N[C@@H](CCC(N)=O)C(=O)N[C@@H](Cc1c[nH]c2ccccc12)C(=O)N[C@@H](CC(C)C)C(=O)N[C@@H](CC(C)C)C(=O)N[C@@H](CC(=O)O)C(=O)N[C@H](C(N)=O)[C@@H](C)O)C(C)C [compound 48]
GLP-1 receptor; [1]
  EC50: 0.039 nM
Glucagon receptor; [2]
  EC50: 0.026 nM

## CCCCCCCCCCCCCCCC(=O)N[C@@H](CCC(=O)NCCCC[C@H](NC(=O)[C@H](CC(=O)O)NC(=O)[C@H](CO)NC(=O)[C@@H](NC(=O)[C@H](Cc1ccccc1)NC(=O)[C@@H](NC(=O)CNC(=O)[C@H](CCC(N)=O)NC(=O)[C@@H](CO)NC(=O)[C@@H](N)Cc1c[nH]cn1)[C@@H](C)O)[C@@H](C)O)C(=O)N[C@@H](CO)C(=O)N[C@@H](CCCCN)C(=O)N[C@@H](Cc1ccc(O)cc1)C(=O)N[C@@H](CC(C)C)C(=O)N[C@@H](CC(=O)O)C(=O)N[C@@H](CCC(=O)O)C(=O)N[C@@H](CCC(N)=O)C(=O)N[C@@H](C)C(=O)N[C@@H](C)C(=O)N[C@@H](CCCCN)C(=O)N[C@@H](CCC(=O)O)C(=O)N[C@@H](Cc1ccccc1)C(=O)N[C@H](C(=O)N[C@@H](CS)C(=O)N[C@@H](Cc1c[nH]c2ccccc12)C(=O)N[C@@H](CC(C)C)C(=O)N[C@@H](CC(C)C)C(=O)N[C@@H](CC(=O)O)C(=O)N[C@H](C(N)=O)[C@@H](C)O)[C@@H](C)CC)C(=O)O [compound 64]
GIP receptor
  EC50: 2.82 nM

## 51 (H[Aib]QGTFTSDYSKYLDEKRA[Aib]EFVC(40K‑TE PEG(4))WLL[Aib]GGPSSGAPPPS-NH2) [compound 51]
GIP receptor
  EC50 (nM) at GIP receptor: no activity

## 47 (H[Aib]QGTFTSDYSKYLDEKRA[Aib]EFVC(PEG 40 kDa)WLLDGGPSSGAPPPS-NH2) [compound 47]
GIP receptor
  EC50 (nM) at GIP receptor: no activity

## 38 (H[Aib]QGTFTSDYSKYLD[Aib]KRA[Aib]EFVC(PEG 40 kDa)WLLDT-NH2) [compound 38]
GIP receptor
  EC50 (nM) at GIP receptor: no activity

## 41 (H[Aib]QGTFTSDYSKYLDEKRA[Aib]EFVC(PEG 40 kDa)WLL[Aib]T-NH2) [compound 41]
GIP receptor
  EC50 (nM) at GIP receptor: no activity

## CC(C)C[C@H](NC(=O)[C@H](CC(C)C)NC(=O)[C@H](Cc1c[nH]c2ccccc12)NC(=O)[C@H](CCC(N)=O)NC(=O)[C@@H](NC(=O)[C@H](Cc1ccccc1)NC(=O)[C@H](CC(=O)O)NC(=O)[C@H](CCC(N)=O)NC(=O)[C@H](C)NC(=O)[C@H](C)NC(=O)[C@H](CCCNC(=N)N)NC(=O)[C@H](CCC(=O)O)NC(=O)[C@H](CC(=O)O)NC(=O)[C@H](CC(C)C)NC(=O)[C@H](Cc1ccc(O)cc1)NC(=O)[C@H](CCCCN)NC(=O)[C@H](CO)NC(=O)[C@H](CCCCNC(=O)CCC(=O)c1ccccc1)NC(=O)[C@H](CC(=O)O)NC(=O)[C@H](CO)NC(=O)[C@@H](NC(=O)[C@H](Cc1ccccc1)NC(=O)[C@@H](NC(=O)CNC(=O)[C@H](CCC(N)=O)NC(=O)[C@@H](CO)NC(=O)[C@@H](N)Cc1c[nH]cn1)[C@@H](C)O)[C@@H](C)O)C(C)C)C(=O)N[C@@H](CC(=O)O)C(=O)NCC(=O)NCC(=O)N1CCC[C@H]1C(=O)N[C@@H](CO)C(=O)N[C@@H](CO)C(=O)NCC(=O)N[C@@H](C)C(=O)N1CCC[C@H]1C(=O)N1CCC[C@H]1C(=O)N1CCC[C@H]1C(=O)N[C@@H](CO)C(N)=O [compound 49]
GLP-1 receptor; [3]
  EC50: 0.01 nM
Glucagon receptor; [3]
  EC50: 0.063 nM

## 45 (H[Aib]QGTFTSDYSKYLDEKRA[Aib]EFVC(40K‑TE PEG(4))WLLDT-OH) [compound 45]
GIP receptor
  EC50 (nM) at GIP receptor: no activity

## 52 (H[Aib]QGTFTSDYSKYLDEK[Aib]AKEFVC(PEG 40 kDa)WLLDT-NH2) [compound 52]
GIP receptor
  EC50 (nM) at GIP receptor: no activity

## CCCCCCCCCCCCCCCC(=O)N[C@@H](CCC(=O)NCCCC[C@H](NC(=O)[C@H](CC(=O)O)NC(=O)[C@H](CO)NC(=O)[C@@H](NC(=O)[C@H](Cc1ccccc1)NC(=O)[C@@H](NC(=O)CNC(=O)[C@H](CCC(N)=O)NC(=O)[C@@H](CO)NC(=O)[C@@H](N)Cc1c[nH]cn1)[C@@H](C)O)[C@@H](C)O)C(=O)N[C@@H](CO)C(=O)N[C@@H](CCCCN)C(=O)N[C@@H](Cc1ccc(O)cc1)C(=O)N[C@@H](CC(C)C)C(=O)N[C@@H](CC(=O)O)C(=O)N[C@@H](CCC(=O)O)C(=O)N[C@@H](CCC(N)=O)C(=O)N[C@@H](C)C(=O)N[C@@H](C)C(=O)N[C@@H](CCCCN)C(=O)N[C@@H](CCC(=O)O)C(=O)N[C@@H](Cc1ccccc1)C(=O)N[C@H](C(=O)N[C@@H](CS)C(=O)N[C@@H](Cc1c[nH]c2ccccc12)C(=O)N[C@@H](CC(C)C)C(=O)N[C@@H](CC(C)C)C(=O)N[C@@H](CC(=O)O)C(=O)N[C@H](C(=O)N[C@@H](CCC(=O)O)C(N)=O)[C@@H](C)O)[C@@H](C)CC)C(=O)O [compound 65]
GIP receptor
  EC50: 47.1 nM

## 46 (H[Aib]QGTFTSDYSKYLD[Aib]KRA[Aib]EFVC(PEG 40 kDa)WLLDGGPSSGAPPPS-NH2) [compound 46]
GIP receptor
  EC50 (nM) at GIP receptor: no activity

## 13 (H[Aib]QGTFTSDYSKYLDEKRA[Aib]EFVC(PEG 40 kDa)WLLDT-NH2) [compound 13]
GIP receptor
  EC50 (nM) at GIP receptor: no activity
